{"source": "ChEMBL document CHEMBL1201862", "about": "“PubChem BioAssay data set” (2004)", "key": {"[1]": {"assay": "C. albicans growth with fluconazole, confirmation, fluorescence, retest (AID 2467)", "assay_type": "functional, cell-based"}, "[2]": {"assay": "NIH-3T3 fibroblast cytotoxicity, dose response, cytotoxicity control, cell-based, fluorescence, Alamar Blue, secondary assay (AID 2327);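 also: NIH-3T3 mouse fibroblasts cultured with fluconazole at 8 µg/mL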", "assay_type": "functional"}, "[3]": {"target": "T1, Carboxy-terminal domain RNA polymerase II polypeptide A small phosphatase 1 (Homo sapiens, UniProt Q9GZU7)", "T1 sequence (Q9GZU7 whole entry)": "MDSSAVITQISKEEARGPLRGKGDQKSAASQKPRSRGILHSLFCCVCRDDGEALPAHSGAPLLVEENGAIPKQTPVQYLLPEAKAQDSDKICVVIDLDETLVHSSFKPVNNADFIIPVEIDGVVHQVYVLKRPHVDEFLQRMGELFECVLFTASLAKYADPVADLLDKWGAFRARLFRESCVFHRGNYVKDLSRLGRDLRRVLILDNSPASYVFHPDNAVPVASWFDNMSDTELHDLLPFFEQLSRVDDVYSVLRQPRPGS", "assay": "inhibitors of CTDSP1, concentration-response testing, biochemical assay, absorbance-based, actives from ultra-high-throughput screening (AID 540297)", "assay_type": "functional"}, "[4]": {"target": "T2, Polyadenylate-binding protein 1 (Homo sapiens, UniProt P11940)", "T2 sequence (P11940 whole entry)": "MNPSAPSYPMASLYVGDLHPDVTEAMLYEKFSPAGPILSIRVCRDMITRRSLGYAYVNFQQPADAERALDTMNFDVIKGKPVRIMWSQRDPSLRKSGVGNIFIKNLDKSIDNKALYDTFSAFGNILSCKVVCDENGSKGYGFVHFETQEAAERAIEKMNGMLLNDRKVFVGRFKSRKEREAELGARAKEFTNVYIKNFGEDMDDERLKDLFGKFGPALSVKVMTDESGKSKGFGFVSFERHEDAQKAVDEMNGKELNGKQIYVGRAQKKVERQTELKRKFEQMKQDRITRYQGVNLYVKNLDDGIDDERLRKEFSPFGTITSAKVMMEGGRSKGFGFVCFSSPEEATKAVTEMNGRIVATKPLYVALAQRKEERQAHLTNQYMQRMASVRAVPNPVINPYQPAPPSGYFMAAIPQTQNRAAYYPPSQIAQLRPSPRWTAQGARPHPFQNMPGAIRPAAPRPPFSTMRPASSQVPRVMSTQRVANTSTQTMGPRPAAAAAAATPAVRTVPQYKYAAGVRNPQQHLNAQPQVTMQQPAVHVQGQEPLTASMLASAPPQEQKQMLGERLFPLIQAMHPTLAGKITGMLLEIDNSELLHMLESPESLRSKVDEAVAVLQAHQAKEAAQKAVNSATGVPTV", "assay": "PABP1 MLLE–PAM2 interaction inhibitors, dose response, miRNA deadenylation inhibitor project, biochemical, fluorescence polarization, Cy5-PAM2 peptide, secondary (AID 602260)", "assay_type": "functional", "conditions": "read-out: IC50_Mean"}, "[5]": {"target": "T2, Polyadenylate-binding protein 1", "assay": "PABP1 MLLE–PAM2 binding inhibitor potency, dose response, biochemical, fluorescence polarization, FITC-PAM2 peptide (AID 602259)", "assay_type": "functional", "conditions": "read-out: IC50_Mean"}, "Protein skinhead-1": {"target": "T3, Protein skinhead-1 (Caenorhabditis elegans, UniProt P34707)", "T3 sequence (P34707 whole entry)": "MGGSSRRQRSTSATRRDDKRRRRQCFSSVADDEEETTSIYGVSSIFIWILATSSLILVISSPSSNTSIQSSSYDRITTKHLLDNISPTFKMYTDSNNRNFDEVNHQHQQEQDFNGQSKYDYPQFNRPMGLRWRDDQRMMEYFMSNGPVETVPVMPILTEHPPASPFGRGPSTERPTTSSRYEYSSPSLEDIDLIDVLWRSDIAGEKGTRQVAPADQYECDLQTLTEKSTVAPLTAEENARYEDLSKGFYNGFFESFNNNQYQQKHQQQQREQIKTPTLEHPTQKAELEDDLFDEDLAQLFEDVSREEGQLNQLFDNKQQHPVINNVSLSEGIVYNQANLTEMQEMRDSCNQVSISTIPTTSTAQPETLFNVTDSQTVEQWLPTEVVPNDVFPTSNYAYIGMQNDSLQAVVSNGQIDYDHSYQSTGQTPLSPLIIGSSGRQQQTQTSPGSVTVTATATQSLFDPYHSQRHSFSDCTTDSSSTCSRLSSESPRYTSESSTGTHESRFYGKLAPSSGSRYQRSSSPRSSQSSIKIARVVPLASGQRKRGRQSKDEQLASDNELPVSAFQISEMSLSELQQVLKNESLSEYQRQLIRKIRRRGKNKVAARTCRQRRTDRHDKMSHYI", "assay_type": "functional"}, "[6]": {"assay": "inhibitors of SNCA 5'UTR-driven reporter translation, confirmation, H4 neuroglioma cells, luminescence (AID 1988)", "assay_type": "functional, cell-based"}, "[7]": {"assay": "Luminescence Cell-Based Dose Response HTS to Identify Inhibitors of 5'UTR Stem-Loop Driven Prion Protein mRNA Translation in H4 Neuroglioblastoma Cells. [Related pubchem assays: 1827 (Project Summary), 1813 (Primary HTS)]", "assay_type": "functional"}, "[8]": {"assay": "inhibitors of firefly luciferase expression or activity, dose response, H4 neuroglioma cells, luminescence (AID 1990)", "assay_type": "functional, cell-based"}, "P388": {"system": "P388", "assay": "cells", "assay_type": "functional", "conditions": "Mus musculus"}, "P388/ADR": {"system": "P388/ADR", "assay": "cells", "assay_type": "functional", "conditions": "Mus musculus"}, "SN12K1": {"system": "SN12K1", "assay": "cells", "assay_type": "functional", "conditions": "Homo sapiens"}, "[9]": {"target": "T4, Heat shock factor protein 1 (Mus musculus, UniProt P38532)", "T4 sequence (P38532 whole entry)": "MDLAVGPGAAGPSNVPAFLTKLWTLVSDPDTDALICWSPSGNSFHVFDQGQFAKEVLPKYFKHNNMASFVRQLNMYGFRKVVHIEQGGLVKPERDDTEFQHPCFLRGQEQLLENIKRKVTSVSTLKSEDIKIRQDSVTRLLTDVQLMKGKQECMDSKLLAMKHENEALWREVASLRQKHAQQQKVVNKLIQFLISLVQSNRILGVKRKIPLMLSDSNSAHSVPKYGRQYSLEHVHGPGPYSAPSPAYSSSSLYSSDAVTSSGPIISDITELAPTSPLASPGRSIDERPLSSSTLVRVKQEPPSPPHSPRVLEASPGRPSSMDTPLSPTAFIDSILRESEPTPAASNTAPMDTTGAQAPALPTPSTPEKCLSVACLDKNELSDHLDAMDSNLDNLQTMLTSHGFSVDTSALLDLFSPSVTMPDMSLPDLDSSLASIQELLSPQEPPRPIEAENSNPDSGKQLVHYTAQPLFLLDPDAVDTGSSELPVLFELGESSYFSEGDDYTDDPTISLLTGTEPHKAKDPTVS", "assay": "HSF1 potentiators in luciferase reporter cells, confirmation, cell-based, NIH3T3, luminescence, dose retest (AID 435004);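 also: stress induced by proteasome inhibitor MG132 added 30 min after compound; actives raise luminescence as potentiators of the MG132 stress response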", "assay_type": "functional"}, "[10]": {"assay": "inhibitors of clade B AD8 Env fusion, dose response, cell-based, cherry-pick (AID 652062);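 also: potency is for inhibitors of fusion seen as a drop in luminescence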", "assay_type": "functional"}, "[11]": {"assay": "P. falciparum 3D7-ScDHODH growth inhibitors, dose response, SYBR Green, dry powder samples (AID 1159570);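 also: parasite growth measured after 72 hours of compound exposure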", "assay_type": "functional, cell-based"}, "[12]": {"assay": "P. falciparum Dd2 growth inhibitors, dose response, SYBR Green, cherry-picked samples (AID 1159567)", "assay_type": "functional, cell-based"}, "[13]": {"assay": "P. falciparum Dd2 growth inhibitors, dose response, SYBR Green, dry powder samples (AID 1159566);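 also: potency for growth inhibition with lower SYBR green DNA signal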", "assay_type": "functional, cell-based"}, "[14]": {"assay": "P. falciparum ATP4 D1247Y mutant growth inhibitors, dose response, NITD609-resistant line, SYBR Green, dry powder (AID 1159571);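 also: parasites synchronized at ring stage by sorbitol before testing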", "assay_type": "functional, cell-based"}}, "note": "The source made the active and inactive calls."}
{"smiles": "O=C(C[N+]12CCC(CC1)C(C(O)(c1ccccc1)c1ccccc1)C2)c1ccc(Br)cc1", "note": "(stereo not given)", "values": [{"measurement": "EC50", "setting": "[1]", "value": "1.45 µM (active)"}, {"measurement": "EC50", "setting": "[2]", "value": "> 160 µM (inconclusive)"}]}
{"smiles": "CCOC(=O)/C=C1\\CN(CCC(C)C)S(=O)(=O)c2ccccc21", "values": [{"measurement": "IC50", "setting": "[3]", "value": "45.3 µM (active)"}]}
{"smiles": "CCC(OC(=O)CC1Sc2ccccc2NC1=O)C(=O)NCC1CCCO1", "note": "(stereo not given)", "values": [{"measurement": "IC50", "setting": "[4]", "value": "> 66 µM (inactive)"}, {"measurement": "IC50", "setting": "[5]", "value": "> 66 µM (inactive)"}]}
{"smiles": "Cc1cc(OCC(O)CN2CCN(C)CC2)ccc1C(C)C", "note": "(stereo not given)", "values": [{"measurement": "IC50", "setting": "Protein skinhead-1", "value": "> 100 µM (inactive)"}]}
{"smiles": "CCCCCCNC(=O)CCNS(=O)(=O)c1ccc(C)cc1", "values": [{"measurement": "EC50", "setting": "[6]", "value": "> 120 µM (not active)"}, {"measurement": "EC50", "setting": "[7]", "value": "> 120 µM (not active)"}, {"measurement": "EC50", "setting": "[8]", "value": "> 120 µM (not active)"}]}
{"smiles": "CCCCn1c(=O)[nH]c(=O)c2c1nc(-c1ccc(-c3ccccc3Br)o1)n2CC", "values": [{"measurement": "EC50", "setting": "[1]", "value": "> 38 µM (not active)"}, {"measurement": "EC50", "setting": "[2]", "value": "> 150 µM (inconclusive)"}]}
{"smiles": "N#Cc1ccc(OCC(=O)Nc2cccc(S(=O)(=O)NC3=NCCCCC3)c2)cc1", "values": [{"measurement": "IC50", "setting": "[3]", "value": "11.6 µM (active)"}]}
{"smiles": "CCCCOc1ccc(C(=O)OC2CC(C)N(C)CC2C)cc1", "note": "(stereo not given)", "values": [{"measurement": "IC50", "setting": "Protein skinhead-1", "value": "27.6 µM (active)"}]}
{"smiles": "CCN1C(=O)[C@H]2[C@H]3CN=C(SCC(=O)c4ccccc4)N3[C@@](C)(C(=O)OC)[C@H]2C1=O", "values": [{"measurement": "IC50", "setting": "[4]", "value": "> 66 µM (inactive)"}, {"measurement": "IC50", "setting": "[5]", "value": "> 66 µM (inactive)"}]}
{"smiles": "CC[N+]1(CC(O)COC2CC(C)CC(C)(C)C2)CCOCC1", "note": "(stereo not given)", "values": [{"measurement": "IC50", "setting": "[3]", "value": "11.3 µM (active)"}]}
{"smiles": "Cc1c(Cl)cccc1N=C(S)NCCc1ccc(S(N)(=O)=O)cc1", "values": [{"measurement": "IC50", "setting": "[4]", "value": "> 66 µM (inactive)"}, {"measurement": "IC50", "setting": "[5]", "value": "> 66 µM (inactive)"}]}
{"smiles": "Cc1ccc(OP2(=O)Oc3ccc4ccccc4c3CN2c2ccc(Cl)cc2)cc1C", "note": "(stereo not given)", "values": [{"measurement": "GI50", "setting": "P388", "value": "> 100 µM (inactive)"}, {"measurement": "GI50", "setting": "P388/ADR", "value": "> 100 µM (inactive)"}, {"measurement": "GI50", "setting": "SN12K1", "value": "> 100 µM (inactive)"}]}
{"smiles": "O=C(N/N=C/c1ccncc1)c1cc2ccccc2cc1O", "values": [{"measurement": "EC50", "setting": "[1]", "value": "> 38 µM (not active)"}, {"measurement": "EC50", "setting": "[2]", "value": "> 150 µM (inactive)"}, {"measurement": "EC50", "setting": "[9]", "value": "106 µM (active)"}]}
{"smiles": "CSCSCC(N)CO.Cc1[nH]c(=O)[nH]c(=O)c1/C=C/C(=O)O", "values": [{"measurement": "GI50", "setting": "P388", "value": "> 625 µM (inactive)"}, {"measurement": "GI50", "setting": "P388/ADR", "value": "> 625 µM (inactive)"}, {"measurement": "GI50", "setting": "SN12K1", "value": "> 625 µM (inactive)"}]}
{"smiles": "C=CC1(NC(=O)c2ccccc2)CCC(C(C)(C)C)CC1", "note": "(stereo not given)", "values": [{"measurement": "GI50", "setting": "P388", "value": "12.2 µM (inactive)"}, {"measurement": "GI50", "setting": "P388/ADR", "value": "22.2 µM (inactive)"}, {"measurement": "GI50", "setting": "SN12K1", "value": "32.4 µM (inactive)"}]}
{"smiles": "CCCNC(=O)C[C@@H]1C[C@H]2c3cc(NC(=O)Cc4ccncc4)ccc3O[C@H]2[C@H](CO)O1", "values": [{"measurement": "AC50", "setting": "[10]", "value": "39.4 µM (active)"}]}
{"smiles": "O=C(C[C@@H]1C=C[C@@H](NC(=O)Nc2ccc3c(c2)OCO3)[C@H](CO)O1)NCc1ccc(F)cc1", "values": [{"measurement": "AC50", "setting": "[10]", "value": "4.77 µM (active)"}]}
{"smiles": "CC(C)(C)[S@@+]([O-])N1Cc2cc(C(=O)N[C@@H]3CCN(Cc4ccccc4)C3)nc(-c3cccc(-c4cccnc4)c3)c2[C@H]1CCO", "values": [{"measurement": "AC50", "setting": "[11]", "value": "3.42 µM (active)"}, {"measurement": "AC50", "setting": "[12]", "value": "1.94 µM (active)"}, {"measurement": "AC50", "setting": "[13]", "value": "2.01 µM (active)"}, {"measurement": "AC50", "setting": "[14]", "value": "2.58 µM (active)"}]}
{"smiles": "CN1c2ccc(C#Cc3cccnc3)cc2[C@H]2[C@H](CCN2S(=O)(=O)c2ccc(F)cc2)[C@H]1CO", "values": [{"measurement": "AC50", "setting": "[11]", "value": "1.33 µM (active)"}, {"measurement": "AC50", "setting": "[12]", "value": "1.7 µM (active)"}, {"measurement": "AC50", "setting": "[13]", "value": "1.05 µM (active)"}, {"measurement": "AC50", "setting": "[14]", "value": "1.16 µM (active)"}]}
{"smiles": "COc1ccc(NC(=O)N2CC3(C2)CN(C(=O)C2CCC2)[C@H](CO)c2c3c3ccc(OC)cc3n2C)cc1", "values": [{"measurement": "AC50", "setting": "[11]", "value": "0.22 µM (active)"}, {"measurement": "AC50", "setting": "[12]", "value": "2.21 µM (active)"}, {"measurement": "AC50", "setting": "[13]", "value": "0.437 µM (active)"}, {"measurement": "AC50", "setting": "[14]", "value": "0.372 µM (active)"}]}
{"smiles": "C1CN1c1nc(N2CC2)nc(N2CC2)n1", "values": [{"measurement": "GI50", "setting": "P388", "value": "0.465 µM (active)"}, {"measurement": "GI50", "setting": "P388/ADR", "value": "0.466 µM (active)"}, {"measurement": "GI50", "setting": "SN12K1", "value": "5.21 µM (inactive)"}]}
{"smiles": "O=NN(CCCl)C(=O)NCCCl", "note": "[CARMUSTINE]", "values": [{"measurement": "GI50", "setting": "P388", "value": "6.62 µM (inactive)"}, {"measurement": "GI50", "setting": "P388/ADR", "value": "7.29 µM (inactive)"}, {"measurement": "GI50", "setting": "SN12K1", "value": "58.3 µM (inactive)"}]}
